The test system of experiment [1] is Aspergillus fumigatus. Description: Antifungal Test (MIC, Sabouraud's agar). Type of experiment: cell-based. Particulars: 120 h, A. fumiga, 27° C., 5 days. The procedure:
(§1) (i) Preparation of the test solution: The sample to be tested was examined to determine a suitable solvent from those listed below and the method of dissolution, and then the sample was weighed (about 10 mg), dissolved in the selected solvent and diluted with sterilized distilled water to a concentration of 500 μg/ml. Samples of the resulting solution were then subjected to sequential dilution to half the previous concentration to prepare I2 samples in which the concentration of active compound is progressively halved.
(§2) (ii) Test procedure for antifungal activity: Using Nunklon (Registered trademark) 24.hole plates (manufactured by Nunk K. K.), 0.1 ml each of the diluted solutions described above was poured into a hole, 0.9 ml of Sabouraud's agar medium was added to each hole, giving a total of 1 ml in each hole, and mixed to prepare the plate medium.
5 Aspergillus fumigatus (A. fumiga)
(§3) These test strains were inoculated by means of a slant on Sabouraud's agar medium, cultured at 27° C. for 2 days for the yeast strains or for 7 to 14 days for the mold strains, and, kept intact, preserved at 5° C. (subcultured every 1 month). On the day of the test, in the case of the yeast medium, physiological saline to which had previously been added Tween 80 in an amount of 0.1% (w/v) was added to each medium to prepare 10^6 cells/ml suspensions; and, in the case of the mold medium, 4 ml each of the solution above was added to the surface of the agar slant, the surface was rubbed slightly with a stirrer or a platinum loop to suspend the spores, and then, by filtration through a funnel on which 2 sterilized gauzes were placed one upon another, 10^6 cells/ml suspensions were prepared. Using an Eppendorf pipette, 0.1 ml each of these suspension preparations was inoculated and cultivated. The culture was conducted at 27° C. for 2 days for the three strains of yeast, for 5 days for molds 4 , 5 and 6, and for 7 days for molds 7 and 8 to determine minimal inhibitory concentrations of the test samples.

Experiment [2] relates to Trichophyton mentagrophytes Sc. Briefly: Antifungal Test (MIC, Sabouraud's agar). Type of experiment: cell-based. The note with it: 168 h, T. mentag, 27° C., 7 days. The protocol:
as §1, §2
7 Trichophyton mentagrophytes Sc. (T. mentag)
as §3

The subject of experiment [3] is Candida Albicans Sc. Description: Antifungal Test (MIC, Sabouraud's agar). The note with it: 48 h, C. albica, 27° C., 2 days. In kind it is cell-based. The procedure:
as §1, §2
1 Candida Albicans Sc. (C. albica)
as §3

Experiment [4] has as its system Microsporum gypseum. Briefly: Antifungal Test (MIC, Sabouraud's agar). In kind it is cell-based. Particulars: Nannizzia gypsea, 120 h. The procedure: as §1, §2
6 Microsporum gypseum (M. gypseu)
as §3

Experiment [5] deals with Trichophyton rubrum Sc. Briefly: Antifungal Test (MIC, Sabouraud's agar). In kind it is cell-based. The note with it: 168 h.
For experiment [6], the system named is Candida albicans 427. Description: Antifungal Test (MIC, Sabouraud's agar). Type of experiment: cell-based.
Experiment [7] concerns Aspergillus niger (Fungus A). Briefly: Antifungal Activity (paper disc on agar). The note with it: 30 μl of 300 ppm acetone solution, 25° C., 5 days.
Method: (§4) A fungal disc of about 4 mm diameter was inoculated on an agar medium (2% by weight malt extract, 1% glucose, 0.3% peptone and 2% agar) in a petri dish of diameter 9 cm, by placing the disc on the center of the medium. Paper disc specimens were prepared by impregnating 30 μl of an acetone solution containing 300 ppm of the test compound into the disc (diameter 8 mm, thickness 0.7 mm) and then subjecting it to dry sterilization. The disc specimens were placed in a circle at about 1 cm distance from the fringe of the grown fungus, three days after the inoculation. The specimens were then maintained at 25° C. for 5 days, after which the antifungal activity was determined by visual observation of infection of the specimens by the fungus. The fungi tested were:
Aspergillus niger (Fungus A),
In experiment [8] the test system is Cryptococcus neoformans 58063. Briefly: Antifungal Test (MIC, Sabouraud's agar). The note with it: Cryptococcus neoformans, 58063, 48 h; C. neofor; 27° C., 2 days. In kind it is cell-based. The protocol:
as §1, §2
3 Cryptococcus neoformans 58063 (C. neofor)
as §3

The subject of experiment [9] is Mucor mucedo. Briefly: Antifungal Test (MIC, Sabouraud's agar). In kind it is cell-based. Particulars: 120 h.
For experiment [10], the system named is Coriolus versicolor (Fungus D). Briefly: Wood-preservative Activity (Antidecay). The note with it: paper disc, 30 μl of 300 ppm acetone solution, 25° C., 5 days.
Method: (§5) A fungal disc of about 4 mm diameter was inoculated on an agar medium (2% by weight malt extract, 1% glucose, 0.3% peptone and 2% agar) in a petri dish of diameter 9 cm, by placing the disc on the center of the medium. Paper disc specimens were prepared by impregnating 30 μl of an acetone solution containing 300 ppm of the test compound into the disc (diameter 8 mm, thickness 0.7 mm) and then subjecting it to dry sterilization. The disc specimens were placed in a circle at about 1 cm distance from the fringe of the grown fungus, three days after the inoculation. The specimens were then maintained at 25° C. for 5 days, after which the antifungal activity was determined by visual observation of infection of the specimens by the fungus.
(§6) The procedure described in Experiment 7 was repeated, except that the fungi tested were Coriolus versicolor (Fungus D) and Tyromyces palustris (Fungus E), which are prescribed in JIS A-9201.
For experiment [11], the system named is Tyromyces palustris (Fungus E). Briefly: Wood-preservative Activity (Antidecay). The note with it: paper disc, 30 μl of 300 ppm acetone solution, 25° C., 5 days.
Method: as §5, §6
Experiment [12] deals with Fusarium moliniforme (Fungus C). Briefly: Antifungal Activity (paper disc on agar). Particulars: 30 μl of 300 ppm acetone solution, 25° C., 5 days.
Method: as §4
The antifungal activity is indicated by the following ratings:
The subject of experiment [13] is Gliocladium virens (Fungus B). Briefly: Antifungal Activity (paper disc on agar). The note with it: 30 μl of 300 ppm acetone solution, 25° C., 5 days.
Method: as §4
Gliocladium virens (Fungus B), and

Converted amounts (≈) assume the structure as drawn. Read-outs that look alike come from different tables or passages of the source. Some results are limits rather than exact numbers.

Broadly, the MIC is the lowest concentration found to suppress growth. Consider `C[Si](C)(C)CC(O)(Cn1cncn1)c1ccc(F)cc1` (centres unmarked) [Compound 1-3, 2-(4-Fluorophenyl)-1-(1H-1,2,4-triazol-1-yl)-3-trimethylsilyl-2-propanol], for which the MIC is more than 50 µg/mL in [1]; 25 µg/mL (≈ 85.2 µM) in [2]; more than 50 µg/mL in [3]; more than 50 µg/mL in experiment [4]; 25 µg/mL (≈ 85.2 µM) in experiment [5]; more than 50 µg/mL in [6] (Candida albicans, 427, 48 h). The MIC in [8] and in [9] was more than 50 µg/mL throughout. Also, the “antifungal activity, Fungus A” value in [7] was “+”.
As for `C[Si](C)(C)CC(O)(Cn1cncn1)c1ccc(Cl)cc1` (centres unmarked) [Compound 1-2, 2-(4-Chlorophenyl)-1-(1H-1,2,4-triazol-1-yl)-3-trimethylsilyl-2-propanol], the “wood-preservative (antidecay) activity, Fungus D” value in experiment [10] is “+”. Besides, the MIC is more than 50 µg/mL in [1]; 3.1 µg/mL (≈ 10 µM) in experiment [2]; more than 50 µg/mL in experiment [3]; more than 50 µg/mL in experiment [4]; 3.1 µg/mL (≈ 10 µM) in [5]; more than 50 µg/mL in experiment [6] (Candida albicans, 427, 48 h). Also, the values for the MIC in [8] and in [9] were 12.5 µg/mL (≈ 40.3 µM) and more than 50 µg/mL, respectively. Moreover, the “wood-preservative (antidecay) activity, Fungus E” value in experiment [11] is listed as “+”. Further, the “antifungal activity, Fungus C” value in [12] was “+”. Besides, the “antifungal activity, Fungus A” value in [7] is given as “+”. The “antifungal activity, Fungus B” value in experiment [13] is “+”.
As for `C[Si](C)(C)CC(O)(Cn1cncn1)c1ccc(F)cc1F` (centres unmarked) [Compound 1-12, 2-(2,4-Difluorophenyl)-1-(1H-1,2,4-triazole-1-yl)-3-trimethylsilyl-2-propanol], the “wood-preservative (antidecay) activity, Fungus D” value in experiment [10] is listed as “+”. The MIC in experiment [1] is 12.5 µg/mL (≈ 40.1 µM); in experiment [2] it was 0.8 µg/mL (≈ 2.57 µM); in [3], more than 50 µg/mL; in experiment [4], 1.5 µg/mL (≈ 4.82 µM); in experiment [5] (T. rubrum, 27° C., 7 days, read-out: MIC), 0.8 µg/mL (≈ 2.57 µM); in experiment [6] (Candida albicans, 48 h, C. alb 427, 27° C., 2 days, read-out: MIC) it was more than 50 µg/mL. Also, the MIC in experiment [8] worked out at 6.2 µg/mL (≈ 19.9 µM); in experiment [9] (M. mucedo, 27° C., 5 days, read-out: MIC), 12.5 µg/mL (≈ 40.1 µM). Also, in [11], the “wood-preservative (antidecay) activity, Fungus E” value is “+”. Further, the “antifungal activity, Fungus C” value in [12] is listed as “+”. The “antifungal activity, Fungus A” value in experiment [7] is “-”. Further, the “antifungal activity, Fungus B” value in experiment [13] was “+”.

Values taken from patent US5306712A, “Fungicidal silicon-containing compounds and their agrochemical and medicinal uses” (Sanyo Company, Limited, priority 1991, dated 1994).
